Reference: ChEMBL document CHEMBL1201862, “PubChem BioAssay data set” (2004)
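Interpolation was linear, between the two tested concentrations surrounding the appropriate level; five concentrations were tested over 48 hours in 96-well plates. GI50 is the concentration that inhibits growth by half.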 Activity calls are given as the source filed them. Rule as the data show it: active = GI50 up to about 1.1 µM and inactive = higher. Where a SMILES comes first, the peptide text is derived from it. [ ]: non-standard residue; d: D form. Phe(F5) = N[CH](Cc1c(F)c(F)c(F)c(F)c1F)C(=O)O

How the values were obtained:
Assay in all cases: NCI anticancer screen, dose series, 48 h
COLO 205 = system: COLO 205
M14 = system: M14
SK-MEL-2 = system: SK-MEL-2
SF-295 = system: SF-295
NCI-H522 = system: NCI-H522
SN12C = system: SN12C
HT-29 = system: HT-29
MDA-N = system: MDA-N
Hs-578T = system: Hs-578T
MOLT-4 = system: MOLT-4
UACC-62 = system: UACC-62
K562 = system: K562
BT-549 = system: BT-549
SF-539 = system: SF-539
NCI-H460 = system: NCI-H460
HCC 2998 = system: HCC 2998
SK-OV-3 = system: SK-OV-3
KM12 = system: KM12
SR = system: SR
NCI/ADR-RES = system: NCI/ADR-RES

Q: For `OC1CSCCCSCCSCCCSC1`, which GI50 (COLO 205) is on record?
A: > 100 µM (inactive)

Q: And the GI50 (M14)?
A: > 100 µM (inactive)

Q: And the GI50 (SK-MEL-2)?
A: > 100 µM (inactive)

Q: What about the GI50 (SF-295) of the same compound?
A: > 100 µM (inactive)

Q: And the GI50 (NCI-H522)?
A: > 100 µM (inactive)

Q: What about the GI50 (SN12C) of the same compound?
A: > 100 µM (inactive)

Q: What about the GI50 (HT-29) of the same compound?
A: > 100 µM (inactive)

Q: And the GI50 (MDA-N)?
A: > 100 µM (inactive)

Q: What about the GI50 (Hs-578T) of the same compound?
A: > 100 µM (inactive)

Q: And the GI50 (MOLT-4)?
A: 12.1 µM (inactive)

Q: What about the GI50 (UACC-62) of the same compound?
A: > 100 µM (inactive)

Q: And the GI50 (K562)?
A: > 100 µM (inactive)

Q: What about the GI50 (BT-549) of the same compound?
A: > 100 µM (inactive)

Q: And the GI50 (SF-539)?
A: > 100 µM (inactive)

Q: And the GI50 (NCI-H460)?
A: > 100 µM (inactive)

Q: What about the GI50 (HCC 2998) of the same compound?
A: > 100 µM (inactive)

Q: What about the GI50 (SK-OV-3) of the same compound?
A: > 100 µM (inactive)

Q: How did the GI50 (KM12) turn out when `O=C(O)CCC(=O)c1ccc2c(c1)C(C(=O)O)CC2` (stereo unspecified) was run?
A: > 100 µM (inactive)

Q: What about the GI50 (COLO 205) of the same compound?
A: > 100 µM (inactive)

Q: What about the GI50 (M14) of the same compound?
A: > 100 µM (inactive)

Q: And the GI50 (SK-MEL-2)?
A: > 100 µM (inactive)

Q: What about the GI50 (SF-295) of the same compound?
A: > 100 µM (inactive)

Q: And the GI50 (NCI-H522)?
A: > 100 µM (inactive)

Q: And the GI50 (SN12C)?
A: > 100 µM (inactive)

Q: And the GI50 (HT-29)?
A: > 100 µM (inactive)

Q: And the GI50 (MDA-N)?
A: > 100 µM (inactive)

Q: What about the GI50 (Hs-578T) of the same compound?
A: > 100 µM (inactive)

Q: And the GI50 (MOLT-4)?
A: > 100 µM (inactive)

Q: And the GI50 (UACC-62)?
A: > 100 µM (inactive)

Q: And the GI50 (SR)?
A: > 100 µM (inactive)

Q: And the GI50 (K562)?
A: > 100 µM (inactive)

Q: And the GI50 (NCI/ADR-RES)?
A: > 100 µM (inactive)

Q: What about the GI50 (SF-539) of the same compound?
A: > 100 µM (inactive)

Q: And the GI50 (NCI-H460)?
A: > 100 µM (inactive)

Q: What about the GI50 (HCC 2998) of the same compound?
A: > 100 µM (inactive)

Q: What about the GI50 (SK-OV-3) of the same compound?
A: > 100 µM (inactive)

Q: What does the source list for `O=C(c1ccc2ccccc2c1)C1(I)S(=O)(=O)OCCOS1(=O)=O`?
A: GI50 (KM12): > 100 µM (inactive); GI50 (COLO 205): > 100 µM (inactive); GI50 (M14): > 100 µM (inactive); GI50 (SK-MEL-2): > 100 µM (inactive); GI50 (SF-295): 0.0102 µM (active); GI50 (SN12C): > 100 µM (inactive); GI50 (HT-29): > 100 µM (inactive); GI50 (MDA-N): > 100 µM (inactive); GI50 (MOLT-4): > 100 µM (inactive); GI50 (SR): > 100 µM (inactive); GI50 (K562): > 100 µM (inactive); GI50 (NCI/ADR-RES): > 100 µM (inactive); GI50 (BT-549): > 100 µM (inactive); GI50 (NCI-H460): > 100 µM (inactive); GI50 (HCC 2998): > 100 µM (inactive)

Q: How did the GI50 (KM12) turn out when `C=C[C@@]1(C)CC(=O)[C@]2(O)[C@@]3(C)[C@@H](OC(C)=O)CCC(C)(C)[C@@H]3[C@H](O)[C@H](OC(C)=O)[C@@]2(C)O1` was run?
A: 13.4 µM (inactive)

Q: And the GI50 (M14)?
A: > 100 µM (inactive)

Q: What about the GI50 (SK-MEL-2) of the same compound?
A: > 100 µM (inactive)

Q: What about the GI50 (SF-295) of the same compound?
A: > 100 µM (inactive)

Q: And the GI50 (SN12C)?
A: > 100 µM (inactive)

Q: What about the GI50 (HT-29) of the same compound?
A: > 100 µM (inactive)

Q: And the GI50 (MDA-N)?
A: > 100 µM (inactive)

Q: What about the GI50 (MOLT-4) of the same compound?
A: > 100 µM (inactive)

Q: What about the GI50 (UACC-62) of the same compound?
A: > 100 µM (inactive)

Q: And the GI50 (SR)?
A: > 100 µM (inactive)

Q: And the GI50 (K562)?
A: > 100 µM (inactive)

Q: What about the GI50 (NCI/ADR-RES) of the same compound?
A: > 100 µM (inactive)

Q: And the GI50 (BT-549)?
A: > 100 µM (inactive)

Q: And the GI50 (SF-539)?
A: > 100 µM (inactive)

Q: What about the GI50 (NCI-H460) of the same compound?
A: > 100 µM (inactive)

Q: And the GI50 (HCC 2998)?
A: > 100 µM (inactive)

Q: What about the GI50 (SK-OV-3) of the same compound?
A: > 100 µM (inactive)

Q: How did the GI50 (KM12) turn out when `Cc1ccccc1N1C(N)=C(C#N)C(C#N)(C#N)C1c1ccccc1` (stereo unspecified) was run?
A: 16.8 µM (inactive)

Q: And the GI50 (COLO 205)?
A: 17.9 µM (inactive)

Q: And the GI50 (M14)?
A: 23.4 µM (inactive)

Q: What about the GI50 (SK-MEL-2) of the same compound?
A: 25.9 µM (inactive)

Q: And the GI50 (SF-295)?
A: 24.7 µM (inactive)

Q: And the GI50 (NCI-H522)?
A: 15.3 µM (inactive)

Q: And the GI50 (SN12C)?
A: 23.3 µM (inactive)

Q: And the GI50 (HT-29)?
A: 18.4 µM (inactive)

Q: What about the GI50 (Hs-578T) of the same compound?
A: 20.1 µM (inactive)

Q: What about the GI50 (MOLT-4) of the same compound?
A: 15.6 µM (inactive)

Q: What about the GI50 (UACC-62) of the same compound?
A: 17.9 µM (inactive)

Q: And the GI50 (SR)?
A: 23.9 µM (inactive)

Q: What about the GI50 (NCI/ADR-RES) of the same compound?
A: 20.7 µM (inactive)

Q: What about the GI50 (BT-549) of the same compound?
A: 13.6 µM (inactive)

Q: What about the GI50 (SF-539) of the same compound?
A: 21.2 µM (inactive)

Q: And the GI50 (HCC 2998)?
A: 16.8 µM (inactive)

Q: What about the GI50 (SK-OV-3) of the same compound?
A: 31.3 µM (inactive)

Q: `O=C(c1ccc2ccccc2c1)N(Cc1cccnc1)C(=S)N(Cc1cccnc1)C(=O)c1ccc2ccccc2c1` was tested. Which GI50 (KM12) did it give?
A: 22 µM (inactive)

Q: What about the GI50 (COLO 205) of the same compound?
A: 29.2 µM (inactive)

Q: And the GI50 (M14)?
A: 20.8 µM (inactive)

Q: What about the GI50 (SK-MEL-2) of the same compound?
A: 25.6 µM (inactive)

Q: And the GI50 (SF-295)?
A: 34.7 µM (inactive)

Q: And the GI50 (NCI-H522)?
A: 37.4 µM (inactive)

Q: What about the GI50 (SN12C) of the same compound?
A: 64 µM (inactive)

Q: What about the GI50 (HT-29) of the same compound?
A: 30 µM (inactive)

Q: And the GI50 (Hs-578T)?
A: 49.9 µM (inactive)

Q: What about the GI50 (MOLT-4) of the same compound?
A: 41.3 µM (inactive)

Q: What about the GI50 (UACC-62) of the same compound?
A: 26 µM (inactive)

Q: And the GI50 (SR)?
A: 45.2 µM (inactive)

Q: And the GI50 (K562)?
A: 41.6 µM (inactive)

Q: And the GI50 (NCI/ADR-RES)?
A: 30 µM (inactive)

Q: What about the GI50 (BT-549) of the same compound?
A: 17 µM (inactive)

Q: What about the GI50 (SF-539) of the same compound?
A: 40 µM (inactive)

Q: And the GI50 (NCI-H460)?
A: 30.6 µM (inactive)

Q: And the GI50 (HCC 2998)?
A: 16.5 µM (inactive)

Q: What about the GI50 (SK-OV-3) of the same compound?
A: 46.3 µM (inactive)

Q: Which GI50 (KM12) does the source give for `O=c1c(-c2ccc3c(c2)OCO3)coc2c3c(ccc12)OCO3` here?
A: 30.8 µM (inactive)

Q: What about the GI50 (COLO 205) of the same compound?
A: > 100 µM (inactive)

Q: And the GI50 (M14)?
A: 30 µM (inactive)

Q: What about the GI50 (SK-MEL-2) of the same compound?
A: 95.9 µM (inactive)

Q: What about the GI50 (SF-295) of the same compound?
A: 18 µM (inactive)

Q: And the GI50 (NCI-H522)?
A: 18.3 µM (inactive)

Q: And the GI50 (SN12C)?
A: 41.8 µM (inactive)

Q: What about the GI50 (MDA-N) of the same compound?
A: 93.5 µM (inactive)

Q: What about the GI50 (Hs-578T) of the same compound?
A: 22.3 µM (inactive)

Q: And the GI50 (MOLT-4)?
A: > 100 µM (inactive)

Q: What about the GI50 (UACC-62) of the same compound?
A: 76.7 µM (inactive)

Q: And the GI50 (SR)?
A: 40 µM (inactive)

Q: What about the GI50 (K562) of the same compound?
A: > 100 µM (inactive)

Q: And the GI50 (BT-549)?
A: 15.6 µM (inactive)

Q: What about the GI50 (SF-539) of the same compound?
A: 20 µM (inactive)

Q: What about the GI50 (NCI-H460) of the same compound?
A: 17.2 µM (inactive)

Q: And the GI50 (HCC 2998)?
A: 58.1 µM (inactive)

Q: And the GI50 (SK-OV-3)?
A: 18.1 µM (inactive)

Q: What does the source list for `COC(=O)C(CC(C)C)NC(=O)C(Cc1c[nH]cn1)NC(=O)CNC(=O)C(NC(=O)C(C)NC(=O)C(Cc1c[nH]c2ccccc12)NC(=O)C(CCC(=O)O)NC(=O)C(N)Cc1c(F)c(F)c(F)c(F)c1F)C(C)C` (stereo unspecified) (H-[Phe(F5)]EWAVGHL-OMe; configuration not given here)?
A: GI50 (KM12): > 12.5 µM (inactive); GI50 (COLO 205): > 12.5 µM (inactive); GI50 (M14): > 12.5 µM (inactive); GI50 (SK-MEL-2): > 12.5 µM (inactive); GI50 (SF-295): > 12.5 µM (inactive); GI50 (NCI-H522): > 12.5 µM (inactive); GI50 (SN12C): > 12.5 µM (inactive); GI50 (HT-29): > 12.5 µM (inactive); GI50 (MDA-N): > 12.5 µM (inactive); GI50 (Hs-578T): > 12.5 µM (inactive); GI50 (MOLT-4): > 12.5 µM (inactive); GI50 (UACC-62): > 12.5 µM (inactive); GI50 (SR): > 12.5 µM (inactive); GI50 (K562): > 12.5 µM (inactive); GI50 (NCI/ADR-RES): > 12.5 µM (inactive); GI50 (SF-539): > 12.5 µM (inactive); GI50 (NCI-H460): > 12.5 µM (inactive); GI50 (HCC 2998): > 12.5 µM (inactive); GI50 (SK-OV-3): > 12.5 µM (inactive)
